Data: patent publication US20170334899A1, “AMINO-SUBSTITUTED ISOTHIAZOLES” (Bayer Pharma Aktiengesellschaft, priority 2014, published 2017)
pIC50: −log10 of the molar value.

Experiments:
Type in all cases: cell-based
[1] = test system: human cervical tumor cell line HeLa (ATCC CCL-2); test: SAC-Formation - Paclitaxel-Induced Assay; details: Homo sapiens, HeLa, 24 h, HeLa cells, paclitaxel 0.05 μM, test range 0.005 μM-20 μM, read-out: IC50 [mol/l] SAC-Formation - Paclitaxel-Induced Assay
Source text: (§1) The spindle assembly checkpoint assures the proper segregation of chromosomes during mitosis. Upon entry into mitosis, chromosomes begin to condensate which is accompanied by the phosphorylation of histone H3 on serine 10. Dephosphorylation of histone H3 on serine 10 begins in anaphase and ends at early telophase. Accordingly, phosphorylation of histone H3 on serine 10 can be utilized as a marker of cells in mitosis. Nocodazole is a microtubule destabilizing substance. Paclitaxel is a microtubule stabilizing compound. Thus, nocodazole as well as paclitaxel interfere with microtubule dynamics and mobilize the spindle assembly checkpoint. […] The mitotic breakthrough can be detected by the decrease of cells with phosphorylation of histone H3 on serine 10. This decline is used as a marker to determine the capability of compounds of the present invention to induce a mitotic breakthrough. The typical morphological alteration of nuclei with a prematurely completed mitosis after SAC-inhibition can be monitored via image analysis routines supporting those findings.
(§2) The nocodazole and paclitaxel variations were used to focus on compounds that are capable of inhibiting a SAC induced by both microtubule destabilization as well as microtubule stabilization. When SAC inducing agents and compounds are given simultaneously inhibitors that effectively block the SAC during formation or abrogation are identified. When cells are incubated with a SAC inducing agent and the SAC interfering compound is given after a defined time, inhibitors are identified that effectively block SAC abrogation.
Cultivated cells of the human cervical tumor cell line HeLa (ATCC CCL-2) were plated at a density of 1000 cells/well in a 1536-well microtiter plate in 2 μl PAA
(§3) Ham's F12 Medium supplemented with 1% (v/v) glutamine, 1% (v/v) penicillin, 1% (v/v) streptomycin and 10% (v/v) fetal calf serum. After incubation overnight at 37° C., 10 μl/well paclitaxel at a final concentration of 0.05 μM were added to cells. Test compounds solubilized in dimethyl sulfoxide (DMSO) were added at various concentrations (0 μM, as well as in the range of 0.005 μM -20 μM; the final concentration of the solvent DMSO was 0.5% (v/v)). Cells were incubated for 24 h at 37° C. in the presence of test compounds in combination with paclitaxel. Thereafter, cells were fixed in 4% (v/v) paraformaldehyde in phosphate buffered saline (PBS) at 4° C. overnight then permeabilized in 0.1% (v/v) Triton X™ 100 in PBS at room temperature for 20 min and blocked in 0.5% (v/v) bovine serum albumin (BSA) in PBS at room temperature for 15 min. After washing with PBS, 5 μl/well antibody solution (anti-phospho-histone H3 clone 3H10, FITC; Millipore, Cat#16-222; 1:1000 dilution) was added to cells, which were incubated for 2 h at room temperature. Afterwards, cells were washed with PBS and 5 μl/well solution of HOECHST 33342 dye (5 μg/ml) was added to cells and cells were incubated 15 min at room temperature in the dark. Cells were washed twice with PBS then covered with PBS and stored at 4° C. until analysis. Images were acquired with a PERKIN ELMER OPERA™ High-Content Analysis reader. Images were analyzed with image analysis software MetaXpress™ from Molecular devices utilizing the Mitotic Index application module. In this assay both labels HOECHST 33342 and phosphorylated Histone H3 on serine 10 were measured. HOECHST 33342 labels the DNA and is used to count the cell number. The staining of phosphorylated Histone H3 on serine 10 determines the number of mitotic cells. […] Otherwise cells were arrested at G2/M phase of the cell cycle progression. The raw assay data were further analyzed by four-parametric hill equation using Genedata's Assay Analyzer and Condoseo software.

[2] = test system: human cervical tumor cell line HeLa (ATCC CCL-2); test: SAC-Formation - Nocodazole-Induced Assay; details: Homo sapiens, HeLa, 24 h, HeLa cells, nocodazole 0.1 μg/ml together with test compound, decrease of mitotic cells (phospho-histone H3 Ser10)
Source text: as §1, §2
as §3, with “Cultivated cells of the human cervical tumor cell line HeLa (ATCC CCL-2) were plated at a density of 1000 cells/well in a 1536-well microtiter plate in 2 μl PAA Ham's” for “Ham's”, “nocodazole” for “paclitaxel”, “0.1 μg/ml” for “0.05 μM”, “μM-20” for “μM -20”, “nocodazole.” for “paclitaxel.”

HeLa = test: Proliferation assay (crystal violet), HeLa; details: Homo sapiens, HeLa, 96 h, HeLa cells; 4 days incubation; crystal violet staining; read-out: IC50 inhibition of proliferation, HeLa
Experimental: Cultivated tumor cells (cells were ordered from ATCC, except HeLa-MaTu and HeLa-MaTu-ADR, which were ordered from EPO-GmbH, Berlin) were plated at a density of 1000 to 5000 cells/well, depending on the growth rate of the respective cell line, in a 96-well multititer plate in 200 μL of their respective growth medium supplemented 10% fetal calf serum. After 24 hours, the cells of one plate (zero-point plate) were stained with crystal violet (see below), while the medium of the other plates was replaced by fresh culture medium (200 μl), to which the test substances were added in various concentrations (0 μM, as well as in the range of 0.001-10 μM; the final concentration of the solvent dimethyl sulfoxide was 0.5%). The cells were incubated for 4 days in the presence of test substances. Cell proliferation was determined by staining the cells with crystal violet: the cells were fixed by adding 20 μl/measuring point of an 11% glutaric aldehyde solution for 15 minutes at room temperature. After three washing cycles of the fixed cells with water, the plates were dried at room temperature. The cells were stained by adding 100 μl/measuring point of a 0.1% crystal violet solution (pH 3.0). After three washing cycles of the stained cells with water, the plates were dried at room temperature. The dye was dissolved by adding 100 μl/measuring point of a 10% acetic acid solution. Absorbtion was determined by photometry at a wavelength of 595 nm. The change of cell number, in percent, was calculated by normalization of the measured values to the aborbtion values of the zero-point plate (=0%) and the absorbtion of the untreated (0 μm) cells (=100%). The IC50 values were determined by means of a 4 parameter fit.

pIC50 [1] | pIC50 [2] | pIC50 (HeLa) | Compound
6.03 | 7.30 | 5.00 | Cc1nsc(Nc2cnc3ccccc3n2)c1C(=O)Nc1cccc(C(=O)N2CCCN(C)CC2)c1 [Example 83, 3-Methyl-N-{3-[(4-methyl-1,4-diazepan-1-yl)carbonyl]-phenyl}-5-(quinoxalin-2-ylamino)-1,2-thiazole-4-carboxamide]
4.70 | 6.03 | 5.00 | Cc1nsc(Nc2cnc3ccccc3n2)c1C(=O)Nc1cccc(C(=O)N2CCN(CC(=O)N(C)C)CC2)c1 [Example 92, N-[3-({4-[2-(Dimethylamino)-2-oxoethyl]piperazin-1-yl}-carbonyl)phenyl]-3-methyl-5-(quinoxalin-2-ylamino)-1,2-thiazole-4-carboxamide]
5.28 | 6.60 | 5.03 | C#CCNC(=O)c1cccc(NC(=O)c2c(C)nsc2Nc2cnc3ccccc3n2)c1 [Example 73, 3-Methyl-N-[3-(prop-2-yn-1-ylcarbamoyl)phenyl]-5-(quinoxalin-2-ylamino)-1,2-thiazole-4-carboxamide]
4.96 | 5.54 | 5.00 | Cc1nsc(Nc2cnc3ccccc3n2)c1C(=O)Nc1cccc(C(=O)N2CCN(C(=O)N(C)C)CC2)c1 [Example 89, N,N-Dimethyl-4-[3-({[3-methyl-5-(quinoxalin-2-ylamino)-1,2-thiazol-4-yl]carbonyl}amino)benzoyl]piperazine-1-carboxamide]
5.59 | 6.06 | 5.40 | COc1cc(CNC(=O)c2cccc(NC(=O)c3c(C)nsc3Nc3cnc4ccccc4n3)c2)cc(OC)c1OC [Example 69, 3-Methyl-5-(quinoxalin-2-ylamino)-N-{3-[(3,4,5-trimethoxy-benzyl)carbamoyl]phenyl}-1,2-thiazole-4-carboxamide]
4.70 | 5.47 | 5.00 | Cc1nsc(Nc2cnc3ccccc3n2)c1C(=O)Nc1cccc(C(=O)N(C)CCO)c1 [Example 59, N-{3-[(2-hydroxyethyl)(methyl)carbamoyl]phenyl}-3-methyl-5-(quinoxalin-2-ylamino)-1,2-thiazole-4-carboxamide]
6.55 | 7.51 | 5.00 | Cc1nsc(Nc2cnc3ccccc3n2)c1C(=O)Nc1cccc(C(=O)N2CCC(N3CCCCC3)CC2)c1 [Example 61, N-[3-(1,4′-Bipiperidin-1′-ylcarbonyl)phenyl]-3-methyl-5-(quinoxalin-2-ylamino)-1,2-thiazole-4-carboxamide]
5.89 | 6.49 | 5.57 | Cc1nsc(Nc2cnc3ccccc3n2)c1C(=O)Nc1cccc(C(=O)NCC(F)(F)F)c1 [Example 64, 3-Methyl-5-(quinoxalin-2-ylamino)-N-{3-[(2,2,2-trifluoro-ethyl)carbamoyl]phenyl}-1,2-thiazole-4-carboxamide]
5.00 | 7.28 | 5.00 | Cc1nsc(Nc2cnc3ccccc3n2)c1C(=O)Nc1cccc(C(=O)NCCN2CCCC2)c1 [Example 72, 3-Methyl-N-(3-{[2-(pyrrolidin-1-yl)ethyl]carbamoyl}phenyl)-5-(quinoxalin-2-ylamino)-1,2-thiazole-4-carboxamide]
5.00 | 7.82 | 5.00 | Cc1nsc(Nc2cnc3ccccc3n2)c1C(=O)Nc1cccc(C(=O)NCCN(C)C)c1 [Example 75, N-(3-{[2-(dimethylamino)ethyl]carbamoyl}phenyl)-3-methyl-5-(quinoxalin-2-ylamino)-1,2-thiazole-4-carboxamide]
5.96 | 6.96 | 5.00 | Cc1nsc(Nc2cnc3ccccc3n2)c1C(=O)Nc1cccc(C(=O)N(C)CCCN(C)C)c1 [Example 68, N-(3-{[3-(Dimethylamino)propyl](methyl)carbamoyl}-phenyl)-3-methyl-5-(quinoxalin-2-ylamino)-1,2-thiazole-4-carboxamide]
